# Results: US5866397A, “Human protein tyrosine phosphatase OB protein” (Merck & Co., Inc., priority 1997, dated 1999)
# Entries after “also recorded” stand apart in the source; their conditions may differ. Where two headings read alike, the source gives them in different places.
# T1: PTP-OB (Homo sapiens, UniProt Q13332)
# T1 construct: we expressed the cytoplasmic domain of PTP-OB and PTPε in bacteria as a GST-fusion protein; made in house; host or cells: bacteria (vector pGEX-2TX, Pharmacia)
# T1 sequence (Q13332 1303-1928 isoform Q13332-3 C1437R/N1685K): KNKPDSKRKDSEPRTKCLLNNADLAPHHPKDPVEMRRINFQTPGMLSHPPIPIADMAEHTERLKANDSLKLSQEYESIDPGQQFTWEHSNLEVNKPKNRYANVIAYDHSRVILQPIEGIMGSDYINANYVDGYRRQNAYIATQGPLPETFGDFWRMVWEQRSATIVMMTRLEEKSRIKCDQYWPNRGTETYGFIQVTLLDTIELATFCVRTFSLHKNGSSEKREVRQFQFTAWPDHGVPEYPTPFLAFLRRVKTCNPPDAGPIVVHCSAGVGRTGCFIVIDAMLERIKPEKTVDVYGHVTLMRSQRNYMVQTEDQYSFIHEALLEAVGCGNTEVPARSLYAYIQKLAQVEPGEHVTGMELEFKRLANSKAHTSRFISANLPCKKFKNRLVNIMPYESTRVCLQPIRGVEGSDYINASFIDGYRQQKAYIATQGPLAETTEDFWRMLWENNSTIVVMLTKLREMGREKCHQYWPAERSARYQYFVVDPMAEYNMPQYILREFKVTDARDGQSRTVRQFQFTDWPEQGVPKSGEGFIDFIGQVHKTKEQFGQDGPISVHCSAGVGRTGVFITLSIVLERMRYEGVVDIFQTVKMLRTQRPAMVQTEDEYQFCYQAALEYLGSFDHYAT
# B1: PTPε (Mus musculus) (protein)
# chain: RFRKQRKAVVSSNDKKMPNGILEEQEQQRVMLLSRSPSGPKKFFPIPVEHLEEEIRVRSADDCKRFREEFNSLPSGHIQGTFELANKEENREKNRYPNILPNDHCRVILSQVDGIPCSDYINASYIDGYKEKNKFIAAQGPKQETVNDFWRMVWEQRSATIVMLTNLKERKEEKCYQYWPDQGCWTYGNIRVCVEDCVVLVDYTIRKFCIHPQLPDSCKAPRLVSQLHFTSWPDFGVPFTPIGMLKFLKKVKTLNPSHAGPIVVHCSAGVGRTGTFIVIDAMMDMIHSEQKVDVFEFVSRIRNQRPQMVQTDVQYTFIYQALLEYYLYGDTELDVSSLERHLQTLHSTATHFDKIGLEEEFRKLTNVRIMKENMRTGNLPANMKKARVIQIIPYDFNRVILSMKRGQEFTDYINASFIDGYRQKDYFMATQGPLAHTVEDFWRMVWEWKSHTIVMLTEVQEREQDKCYQYWPTEGSVTHGDITIEIKSDTLSEAISVRDFLVTFKQPLARQEEQVRMVRQFHFHGWPEVGIPAEGKGMIDLIAAVQKQQQQTGNHPITVHCSAGAGRTGTFIALSNILERVKAEGLLDVFQAVKSLRLQRPHMVQTLEQYEFCYKVVQDFIDIFSDYANFK
# What was measured:
# MB1.8 cells = test: Osteoblast proliferation (thymidine incorporation) in mouse calvaria derived MB1.8 cells; format: cell-based; details: micromolar concentrations
# rat osteoclasts = test: cells; format: cell-based
# [1] = tested on: multinucleated TRAP positive osteoclast-like cells; test: cells; format: cell-based, mouse
# PTP-OB = target: T1, PTP-OB; test: PTP enzymatic assay with recombinant GST-PTP-OB fusion protein (FDP substrate); format: biochemical; details: pH 5.65, FIG. 8
# [2] = tested on: mononucleated TRAP positive cells; format: cell-based, mouse
# PTPε = PTPε (Mus musculus, UniProt P49446); test: PTP enzymatic assay with recombinant GST-PTPε fusion protein (FDP substrate)
# [3] = tested on: osteoblasts and bone marrow cells
# bone resorption = details: organ cultures; Krieger and Tashjian; cited from earlier work
# bone cells / osteoblasts = details: cited from earlier work
# [4] = substrate: O=C1OC2(c3ccc(OP(=O)(O)O)cc3Oc3cc(OP(=O)(O)O)ccc32)c2ccccc21; test: purified protein, by the assay type; details: other: FDP as substrate of GST-PTPε; pH 5.65
molecule,measurement,setting,value
NCCCC(O)(P(=O)(O)O)P(=O)(O)O [alendronate],thymidine incorporation (mitogenesis) of quiescent osteoblasts,MB1.8 cells,stimulated thymidine incorporation
same,inhibition at 10 µM,"rat osteoclasts; Rattus norvegicus, Osteoclast, 24 h, read-out: reduction of the number of resorption pits",80%
same,inhibition of formation of multinucleated TRAP positive cells,[1],completely inhibited
same,IC50,PTP-OB,200 nM
same,development of mononucleated TRAP positive cells,[2],did not block
CC(O)(P(=O)(O)O)P(=O)(O)O [etidronate],thymidine incorporation (mitogenesis) of quiescent osteoblasts,MB1.8 cells,stimulated thymidine incorporation
same,IC50,PTPε,~400 nM
COC1=C2C[C@@H](C)C[C@H](OC)[C@H](O)[C@@H](C)/C=C(\C)[C@H](OC(N)=O)[C@@H](OC)/C=C\C=C(/C)C(=O)NC(=CC1=O)C2=O [geldanamycin],inhibition of formation of multinucleated TRAP positive cells,[1],complete inhibition
same,"inhibition of osteoclast formation, in words",[1],potent inhibitor
same,IC50,"[1]; Mus musculus, Osteoclast-like, read-out: IC50, osteoclast formation",0.05 µg/mL
same,appearance/development of mononuclear TRAP positive cells,[2],completely blocked; also recorded: inhibited the development of mononuclear TRAP positive cells
[O]=[V]([O-])([O-])[O-] [orthovanadate],thymidine incorporation (mitogenesis) of quiescent osteoblasts,MB1.8 cells,stimulated thymidine incorporation
same,"inhibition of bone resorption, in words",rat osteoclasts,potent inhibitors
same,reduction of the number of resorption pits,"rat osteoclasts; osteoclasts on bone slices, 1440 min, 10 µM",80%
same,IC50,"rat osteoclasts; read-out: IC50, bone resorption",2000 nM
same,additional effect when added at earlier days of co-culture,[1],small additional effect
same,inhibition of formation of multinucleated TRAP positive cells,[1],completely inhibited
same,"inhibition of formation of multinucleated TRAP positive cells, in words",[1],completely inhibited
same,inhibition of formation of multinucleated osteoclastic cells when added at any time up to day six,[1],≥ 90%
same,"inhibition of formation of the fused TRAP positive cells, in words",[1],markedly inhibited
same,block of formation of multinucleated TRAP positive cells when added at day six of co-culture,"[1]; bone marrow/osteoblast co-culture, 1440 min",80%
same,IC50,"[1]; read-out: IC50, formation of multinucleated TRAP positive cells",2000 nM
same,effects on the co-cultured osteoblasts,[3],no ill effects
same,toxicity for osteoblasts or bone marrow cells,[3],no apparent toxicity
same,stimulation of bone resorption induced by PTH,bone resorption,inhibited
same,bone cell / osteoblast proliferation,bone cells / osteoblasts,can stimulate osteoblast proliferation; also recorded: stimulated cell proliferation; also recorded: stimulation of cell proliferation
same,development of mononucleated TRAP positive cells,[2],did not block
same,formation of mononucleated TRAP positive cells,[2],produced mononucleated TRAP positive cells
B1,Km,[4],70 µM
